Values of other authors, collected in patent US10722456B2, “Oral composition of celecoxib for treatment of pain” (Dr. Reddy's Laboratories Ltd., priority 2016, dated 2020).

Details: oral administration

Cc1ccc(-c2cc(C(F)(F)F)nn2-c2ccc(S(N)(=O)=O)cc2)cc1 [Celecoxib, 4-[5-(4-methylphenyl)—3-(trifluoromethyl)-1H-pyrazol-1-yl] benzenesulfonamide]
time for peak plasma concentrations to be achieved: approximately 3.0 hours
